These results are taken from ChEMBL document CHEMBL3994622, “Design and synthesis of new RAF kinase-inhibiting antiproliferative quinoline derivatives. Part 2: Diarylurea derivatives” (Eur J Med Chem, 2017).

For experiment [1], the system named is EKVX. Briefly: Growth inhibition of human EKVX cells assessed as cell growth at 30 uM incubated for 48 hrs by sulforhodamine B assay relative to control. In kind it is functional. To be noted: read-out: Activity. (In general: The SRB assay estimates cell density from bound dye.)
For experiment [2], the target named is Receptor-type tyrosine-protein kinase FLT3 (Homo sapiens) (UniProt P36888). Briefly: Inhibition of human FLT3 at 10 uM using EAIYAAPFAKKK as substrate in presence of [33P]ATP by Hotspot assay relative to control.
For experiment [3], the target named is Epidermal growth factor receptor (Homo sapiens) (UniProt P00533). Briefly: Inhibition of human EGFR at 10 uM using poly[Glu:Tyr] (4:1) as substrate in presence of [33P]ATP by Hotspot assay relative to control.
Experiment [4] concerns EKVX. Briefly: Growth inhibition of human EKVX cells assessed as cell growth at 0.003 uM incubated for 48 hrs by sulforhodamine B assay relative to control. It is filed as functional. To be noted: read-out: Activity.
A further experiment concerns LOX IMVI. The experiment in a line: Growth inhibition of human LOXIMVI cells assessed as cell growth at 0.003 uM incubated for 48 hrs by sulforhodamine B assay relative to control. In kind it is functional. The conditions noted are these: read-out: Activity.
For a further experiment, the system named is MDA-MB-468. The experiment in a line: Growth inhibition of human MDA-MB-468 cells assessed as cell growth at 1 uM incubated for 48 hrs by sulforhodamine B assay relative to control. It is filed as functional. The conditions noted are these: MDA-MB-468, 48 h, read-out: Activity.
For another experiment, the system named is ACHN. The experiment in a line: Growth inhibition of human ACHN cells assessed as cell growth at 5 uM incubated for 48 hrs by sulforhodamine B assay relative to control. It is filed as functional. To be noted: read-out: Activity.
The test system of another experiment is RPMI-8226. The experiment in a line: Growth inhibition of human RPMI8226 cells assessed as cell growth at 50 uM incubated for 48 hrs by sulforhodamine B assay relative to control. To be noted: RPMI-8226, 48 h, read-out: Activity. In kind it is functional.
The next experiment concerns OVCAR-4. The experiment in a line: Growth inhibition of human OVCAR4 cells assessed as cell growth at 0.5 uM incubated for 48 hrs by sulforhodamine B assay relative to control. It is filed as functional. The conditions noted are these: OVCAR-4, 48 h, read-out: Activity.
The test system of the next experiment is Hs-578T. The experiment in a line: Growth inhibition of human Hs 578T cells assessed as cell growth at 0.05 uM incubated for 48 hrs by sulforhodamine B assay relative to control. It is filed as functional. To be noted: read-out: Activity.
The next experiment concerns HCC 2998. The experiment in a line: Growth inhibition of human HCC2998 cells assessed as cell growth at 50 uM incubated for 48 hrs by sulforhodamine B assay relative to control. In kind it is functional. To be noted: HCC 2998, 48 h, read-out: Activity.
The next experiment relates to NCI-H460. The experiment in a line: Growth inhibition of human NCI-H460 cells assessed as cell growth at 50 uM incubated for 48 hrs by sulforhodamine B assay relative to control. In kind it is functional. To be noted: NCI-H460, 48 h, read-out: Activity.
The next experiment relates to SN12C. Briefly: Growth inhibition of human SN12C cells assessed as cell growth at 0.05 uM incubated for 48 hrs by sulforhodamine B assay relative to control. In kind it is functional. The conditions noted are these: read-out: Activity.
The subject of a further experiment is MDA-MB-231. The experiment in a line: Growth inhibition of human MDA-MB-231 cells assessed as cell growth at 50 uM incubated for 48 hrs by sulforhodamine B assay relative to control. In kind it is functional. To be noted: MDA-MB-231, 48 h, read-out: Activity.
For a further experiment, the system named is UACC-257. Briefly: Growth inhibition of human UACC257 cells assessed as cell growth at 0.05 uM incubated for 48 hrs by sulforhodamine B assay relative to control. It is filed as functional. To be noted: UACC-257, 48 h, read-out: Activity.
Another experiment has as its system HCT-116. The experiment in a line: Growth inhibition of human HCT116 cells assessed as cell growth at 0.05 uM incubated for 48 hrs by sulforhodamine B assay relative to control. It is filed as functional. The conditions noted are these: HCT-116, 48 h, read-out: Activity.
For a further experiment, the system named is IGROV-1. The experiment in a line: Growth inhibition of human IGROV1 cells assessed as cell growth at 5 uM incubated for 48 hrs by sulforhodamine B assay relative to control. The conditions noted are these: IGROV-1, 48 h, read-out: Activity. In kind it is functional.
For the next experiment, the system named is SNB-19. Briefly: Growth inhibition of human SNB19 cells assessed as cell growth at 5 uM incubated for 48 hrs by sulforhodamine B assay relative to control. It is filed as functional. The conditions noted are these: SNB-19, 48 h, read-out: Activity.
Experiment [5] relates to SR. Briefly: Growth inhibition of human SR cells assessed as cell growth at 0.005 uM incubated for 48 hrs by sulforhodamine B assay relative to control. It is filed as functional. The conditions noted are these: read-out: Activity.
Another experiment concerns NCI-H322M. The experiment in a line: Growth inhibition of human NCI-H322M cells assessed as cell growth at 5 uM incubated for 48 hrs by sulforhodamine B assay relative to control. To be noted: read-out: Activity. In kind it is functional.
The subject of another experiment is MOLT-4. Briefly: Growth inhibition of human MOLT4 cells assessed as cell growth at 5 uM incubated for 48 hrs by sulforhodamine B assay relative to control. It is filed as functional. The conditions noted are these: MOLT-4, 48 h, read-out: Activity.
The subject of a further experiment is SW-620. Briefly: Growth inhibition of human SW620 cells assessed as cell growth at 0.005 uM incubated for 48 hrs by sulforhodamine B assay relative to control. It is filed as functional. To be noted: SW-620, 48 h, read-out: Activity.
Another experiment has as its system COLO 205. Briefly: Growth inhibition of human COLO205 cells assessed as cell growth at 50 uM incubated for 48 hrs by sulforhodamine B assay relative to control. It is filed as functional. To be noted: COLO 205, 48 h, read-out: Activity.
In a further experiment the test system is SK-MEL-28. The experiment in a line: Growth inhibition of human SK-MEL-28 cells assessed as cell growth at 0.5 uM incubated for 48 hrs by sulforhodamine B assay relative to control. It is filed as functional. The conditions noted are these: SK-MEL-28, 48 h, read-out: Activity.
Experiment [6] concerns EKVX. Briefly: Growth inhibition of human EKVX cells assessed as cell growth at 0.005 uM incubated for 48 hrs by sulforhodamine B assay relative to control. In kind it is functional. To be noted: read-out: Activity.
In experiment [7] the test system is T47D. The experiment in a line: Growth inhibition of human T47D cells assessed as cell growth at 5 uM incubated for 48 hrs by sulforhodamine B assay relative to control. To be noted: read-out: Activity. It is filed as functional.
The test system of experiment [8] is EKVX. The experiment in a line: Growth inhibition of human EKVX cells assessed as cell growth at 0.5 uM incubated for 48 hrs by sulforhodamine B assay relative to control. In kind it is functional. The conditions noted are these: read-out: Activity.
The subject of the next experiment is SK-MEL-2. The experiment in a line: Growth inhibition of human SK-MEL-2 cells assessed as cell growth at 5 uM incubated for 48 hrs by sulforhodamine B assay relative to control. The conditions noted are these: SK-MEL-2, 48 h, read-out: Activity. In kind it is functional.
The subject of experiment [9] is SR. The experiment in a line: Growth inhibition of human SR cells assessed as cell growth at 50 uM incubated for 48 hrs by sulforhodamine B assay relative to control. To be noted: read-out: Activity. It is filed as functional.
The subject of another experiment is HOP-62. The experiment in a line: Growth inhibition of human HOP62 cells assessed as cell growth at 0.5 uM incubated for 48 hrs by sulforhodamine B assay relative to control. In kind it is functional. The conditions noted are these: HOP-62, 48 h, read-out: Activity.
In the next experiment the test system is Malme-3M. The experiment in a line: Growth inhibition of human MALME-3M cells assessed as cell growth at 0.5 uM incubated for 48 hrs by sulforhodamine B assay relative to control. In kind it is functional. The conditions noted are these: read-out: Activity.
Experiment [10] deals with T47D. Briefly: Growth inhibition of human T47D cells assessed as cell growth at 0.05 uM incubated for 48 hrs by sulforhodamine B assay relative to control. It is filed as functional. To be noted: read-out: Activity.
The subject of the next experiment is MDA-MB-435. Briefly: Growth inhibition of human MDA-MB-435 cells assessed as cell growth at 5 uM incubated for 48 hrs by sulforhodamine B assay relative to control. It is filed as functional. To be noted: MDA-MB-435, 48 h, read-out: Activity.
Another experiment deals with CAKI-1. Briefly: Growth inhibition of human Caki1 cells assessed as cell growth at 50 uM incubated for 48 hrs by sulforhodamine B assay relative to control. To be noted: CAKI-1, 48 h, read-out: Activity. It is filed as functional.

The inhibition is the relative decrease from the control value, in per cent.

Chain of Epidermal growth factor receptor (Homo sapiens) (P00533 whole entry): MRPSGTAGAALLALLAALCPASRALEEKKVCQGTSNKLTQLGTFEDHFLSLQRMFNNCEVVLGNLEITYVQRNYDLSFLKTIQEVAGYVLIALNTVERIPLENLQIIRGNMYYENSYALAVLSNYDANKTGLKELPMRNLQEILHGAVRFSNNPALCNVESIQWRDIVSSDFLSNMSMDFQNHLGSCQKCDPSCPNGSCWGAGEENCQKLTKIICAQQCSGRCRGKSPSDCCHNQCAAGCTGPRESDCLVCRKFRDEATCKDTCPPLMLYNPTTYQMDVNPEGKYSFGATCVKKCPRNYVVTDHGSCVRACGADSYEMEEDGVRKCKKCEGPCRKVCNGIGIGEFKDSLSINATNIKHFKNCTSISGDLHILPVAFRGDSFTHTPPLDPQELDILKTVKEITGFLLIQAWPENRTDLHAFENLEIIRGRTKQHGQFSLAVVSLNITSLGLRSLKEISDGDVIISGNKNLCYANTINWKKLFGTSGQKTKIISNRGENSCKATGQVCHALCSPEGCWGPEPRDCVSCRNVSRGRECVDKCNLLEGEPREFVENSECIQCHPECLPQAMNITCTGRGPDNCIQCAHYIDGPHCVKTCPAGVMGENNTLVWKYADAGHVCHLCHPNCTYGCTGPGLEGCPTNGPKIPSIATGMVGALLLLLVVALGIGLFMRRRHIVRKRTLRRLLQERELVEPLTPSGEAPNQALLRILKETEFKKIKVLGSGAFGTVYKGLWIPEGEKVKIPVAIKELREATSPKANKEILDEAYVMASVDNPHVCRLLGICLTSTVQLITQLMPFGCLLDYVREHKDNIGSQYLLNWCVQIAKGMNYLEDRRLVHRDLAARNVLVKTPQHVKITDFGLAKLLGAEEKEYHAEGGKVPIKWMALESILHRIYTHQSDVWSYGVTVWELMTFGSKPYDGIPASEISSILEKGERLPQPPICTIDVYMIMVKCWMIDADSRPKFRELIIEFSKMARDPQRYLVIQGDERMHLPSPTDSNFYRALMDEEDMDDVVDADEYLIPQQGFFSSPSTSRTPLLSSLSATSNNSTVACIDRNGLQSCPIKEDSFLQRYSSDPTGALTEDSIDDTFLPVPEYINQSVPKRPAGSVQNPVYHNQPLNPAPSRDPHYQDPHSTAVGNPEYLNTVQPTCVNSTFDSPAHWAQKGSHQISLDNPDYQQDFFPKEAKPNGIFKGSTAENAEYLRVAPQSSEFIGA
Chain of Receptor-type tyrosine-protein kinase FLT3 (Homo sapiens) (P36888 whole entry): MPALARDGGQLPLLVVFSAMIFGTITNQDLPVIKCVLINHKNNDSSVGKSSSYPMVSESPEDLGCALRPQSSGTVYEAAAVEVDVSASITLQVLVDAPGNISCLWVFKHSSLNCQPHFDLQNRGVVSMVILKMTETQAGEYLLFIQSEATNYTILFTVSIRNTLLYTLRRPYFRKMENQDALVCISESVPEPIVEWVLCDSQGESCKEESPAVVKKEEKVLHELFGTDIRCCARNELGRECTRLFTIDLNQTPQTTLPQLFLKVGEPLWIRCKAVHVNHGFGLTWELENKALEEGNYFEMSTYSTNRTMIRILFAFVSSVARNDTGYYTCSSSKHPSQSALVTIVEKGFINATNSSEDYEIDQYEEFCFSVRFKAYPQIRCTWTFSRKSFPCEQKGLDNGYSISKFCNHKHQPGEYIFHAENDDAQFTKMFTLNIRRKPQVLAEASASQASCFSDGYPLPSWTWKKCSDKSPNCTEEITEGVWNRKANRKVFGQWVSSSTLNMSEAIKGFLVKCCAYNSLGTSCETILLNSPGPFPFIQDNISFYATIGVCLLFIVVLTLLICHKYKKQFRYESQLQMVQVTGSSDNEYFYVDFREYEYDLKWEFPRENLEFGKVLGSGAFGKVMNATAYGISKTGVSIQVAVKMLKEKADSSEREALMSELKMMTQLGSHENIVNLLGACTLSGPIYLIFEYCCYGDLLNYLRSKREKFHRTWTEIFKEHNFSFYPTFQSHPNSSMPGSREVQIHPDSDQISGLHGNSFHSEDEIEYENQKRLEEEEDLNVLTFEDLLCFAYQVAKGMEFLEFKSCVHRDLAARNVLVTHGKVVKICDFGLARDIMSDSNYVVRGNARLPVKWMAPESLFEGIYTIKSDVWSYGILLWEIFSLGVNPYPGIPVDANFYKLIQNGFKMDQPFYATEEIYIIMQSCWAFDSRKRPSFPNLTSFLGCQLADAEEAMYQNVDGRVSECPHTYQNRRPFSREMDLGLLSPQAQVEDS

On to `COc1cc2cc(Oc3ccc(NC(=O)Nc4ccc(Cl)c(C(F)(F)F)c4)cc3)c(C)nc2cc1OC`, for which, in the experiment on EKVX [1], the growth at 30 µM was -70%. The inhibition in experiment [2] was 33.5%; in experiment [3] it was -0.3%. Further, the growth at 0.003 µM in the experiment on EKVX [4] amounted to 103%; in the experiment with LOX IMVI it was 100%.
As to `COc1cc2cc(Oc3ccc(NC(=O)Nc4cc(C(F)(F)F)cc(C(F)(F)F)c4)cc3)c(C)nc2cc1OC`, the growth at 1 µM in the experiment on MDA-MB-468 came out at 53%.
`COc1cc2cc(Oc3ccc(NC(=O)Nc4cccc(C(F)(F)F)c4)cc3)c(C)nc2cc1OC`: the growth at 5 µM with ACHN turned out to be 8%; in the experiment with IGROV-1 it was 31%; with SNB-19, 24%; in the experiment with NCI-H322M it was 31%; in the experiment with MOLT-4 it was 4%; with T47D [7], 7%. For the same compound, the growth at 5 µM in the experiment on SK-MEL-2 was -34%; with MDA-MB-435 it was 13%. The growth at 50 µM was -47% in the experiment with RPMI-8226; 4% in the experiment on HCC 2998; -60% in the experiment with NCI-H460; -82% with MDA-MB-231; -88% with COLO 205; -57% in the experiment on SR [9]. Moreover, the growth at 50 µM in the experiment with CAKI-1 is -51%. Moreover, the growth at 0.5 µM with OVCAR-4 worked out at 99%; with SK-MEL-28 it was 92%; in the experiment with EKVX [8] it was 89%; with HOP-62, 100%; in the experiment with Malme-3M, 108%. Also, the growth at 0.05 µM with Hs-578T was 100%; in the experiment on SN12C, 97%; with UACC-257 it was 94%; with HCT-116, 93%; with T47D [10], 101%. Besides, the growth at 0.005 µM is 93% with SR [5], 99% with SW-620 and 105% in the experiment with EKVX [6].
